According to US8501955B2, “Acetamide derivatives as glucokinase activators, their process and medicinal application” (Advinus Therapeutics Private Limited, priority 2007, dated 2013):
pEC50: −log10 of the molar value.

Target: T1, purified human recombinant GK (Homo sapiens, UniProt P35557)
T1 sequence (P35557 1-465): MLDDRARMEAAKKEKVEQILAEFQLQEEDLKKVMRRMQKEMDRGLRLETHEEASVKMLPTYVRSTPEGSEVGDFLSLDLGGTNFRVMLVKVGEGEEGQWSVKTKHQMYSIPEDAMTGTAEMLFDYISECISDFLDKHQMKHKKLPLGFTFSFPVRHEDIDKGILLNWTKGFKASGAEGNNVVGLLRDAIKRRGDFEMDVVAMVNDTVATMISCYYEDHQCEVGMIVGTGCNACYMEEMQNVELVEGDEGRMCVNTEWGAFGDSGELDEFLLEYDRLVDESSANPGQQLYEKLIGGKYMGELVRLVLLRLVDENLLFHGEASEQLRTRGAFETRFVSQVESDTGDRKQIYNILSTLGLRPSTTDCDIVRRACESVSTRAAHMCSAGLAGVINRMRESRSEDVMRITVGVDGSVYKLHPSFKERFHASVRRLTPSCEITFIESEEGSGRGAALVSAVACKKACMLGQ
Assay: Glucokinase activity assay (coupled enzymatic GK/G6PD assay, NADH absorbance at 340 nm)
Format: biochemical
Conditions: for pEC50: EC50 of % change in S0.5 of glucokinase for glucose, sigmoidal fit, read-out: EC50 (with respect to % ΔS0.5); for Emax: Emax of % change in S0.5, vehicle S0.5 = 0%, 0 mM glucose = 100%, read-out: % Emax (with respect to % ΔS0.5)
From the text: The glucokinase (GK) assay is a coupled enzymatic assay. GK catalyzes the first step of glycolysis, the conversion of glucose to glucose-6-phosphate (G6P) in the presence of ATP. G6P in turn is converted by glucose-6-phosphate dehydrogenase (G6PD) to 6-phosphogluconate, a process that requires NAD, resulting in NADH formation. Since the GK-catalyzed step is the rate-limiting step of this coupled enzymatic process, the rate of accumulation of 6-phosphogluconate and NADH is directly proportional to the rate of glucose phosphorylation by GK. The rate of the GK-catalyzed reaction can therefore be measured by monitoring the increase in NADH absorbance at 340 nm.
The assay is carried out according to the protocol outlined in Hariharan et al (1997), Diabetes 46: 11-16. Briefly, the test compounds are incubated in a reaction mix containing 25 mM HEPES (pH 7.2), 10 mM MgCl2, 100 mM KCl, 5 mM ATP, 2 mM DTT, 0.5 mM NAD, 1 U/ml Leuconostoc mesenteroides G6PD, 0.3 U/ml of purified human recombinant GK, and different concentrations of glucose. Enzymatic activity is calculated from the initial reaction velocity, measured from the change in NADH absorbance as a function of time.
Compounds described in formula (I), in concentration ranges from 1.0 nM to […] are tested in the purified human recombinant glucokinase assay described above.
A compound is considered to be a glucokinase activator if it, in its testable range of concentrations, yields a higher rate of glucose phosphorylation than in its absence at a particular glucose concentration, for example at 5 mM glucose.
Compounds of general formula (I) are tested in the in vitro GK enzymatic assay to monitor dose-dependent effect on glucokinase activation (in kinetic mode), as described above, at various glucose concentrations. The S0.5 of glucokinase for glucose at different concentration of each compound of interest is calculated from the following modified version of the Michaelis-Menten equation, V=Vmax[S]^n/(S0.5^n+[S]^n), where [S] is the glucose concentration and n is the Hill coefficient (taken as 1.7 to account for the sigmoidal kinetics of glucokinase with respect to glucose). The S0.5 is plotted against the log of the compound concentration. The change in the S0.5 of glucokinase (ΔS0.5) for glucose is calculated by subtracting the S0.5 at each concentration of the compound from the S0.5 in the vehicle control. The ΔS0.5 is then normalized to a percent scale, where the S0.5 in the vehicle control is set to 0% and 0 mM glucose is set to 100%. The % ΔS0.5 is then plotted against the log of the compound concentration. The EC50 and Emax of % change in S0.5 is obtained from the sigmoidal fit of the data. Detailed protocol has been described in our copending application no. WO 2008/104994 which is incorporated herein by reference. Characterization data of some representative glucokinase activators of the present disclosure, which are illustrative but not limiting, are given in table 1 below.

SMILES: O=C(Nc1ncc(F)s1)C(Oc1ccc2[nH]ccc2c1)c1ccc(S(=O)(=O)C2CC2)cc1 (stereo not drawn) [Example A28, 2-(4-Cyclopropanesulfonylphenyl)-N-(5-fluorothiazol-2-yl)-2-(1H-indol-5-yloxy)acetamide]
- pEC50: 6.19
- Emax: 90%

SMILES: O=C(Nc1ncc(F)s1)C(OC1CCOCC1)c1ccc(S(=O)(=O)C2CC2)cc1 (stereo not drawn) [Example A114, 2-(4-Cyclopropanesulfonyl-phenyl)-N-(5-fluoro-thiazol-2-yl)-2-(tetrahydro-pyran-4-yloxy)-acetamide]
- pEC50: 6.82
- Emax: 92%

SMILES: CC(=O)Nc1cccc(OC(C(=O)Nc2ncc(F)s2)c2ccc(S(=O)(=O)C3CC3)cc2)c1 (stereo not drawn) [Example A29, 2-(3-Acetylaminophenoxy)-2-(4-cyclopropanesulfonylphenyl)-N-(5-fluoro-thiazol-2-yl)acetamide]
- pEC50: 6.23
- Emax: 90%

SMILES: O=C(Nc1ncc(Oc2ccc(C(=O)N3CCC3)cc2)s1)C(Oc1ccc(F)cc1F)c1ccc(S(=O)(=O)C2CC2)cc1 (single isomer, unassigned; (+)) [Example H6A, (+)N-{5-[4-(Azetidine-1-carbonyl)-phenoxy]-thiazol-2-yl}-2-(4-cyclopropanesulfonyl-phenyl)-2-(2,4-difluoro-phenoxy)-acetamide]
- pEC50: 6.96
- Emax: 93%

SMILES: CC(C)Oc1ccc2nc(NC(=O)C(OC3CCOCC3)c3ccc(S(=O)(=O)C4CC4)cc3)sc2n1 (stereo not drawn) [Example A82, 2-(4-Cyclopropanesulfonyl-phenyl)-N-(5-isopropoxy-thiazolo[5,4-b]pyridin-2-yl)-2-(tetrahydro-pyran-4-yloxy)-acetamide]
- pEC50: 6.62
- Emax: 94%

SMILES: O=C(O)c1ccc(Oc2cnc(NC(=O)C(O[C@@H]3CCOC3)c3ccc(S(=O)(=O)C4CC4)cc3)s2)cc1 (single isomer, unassigned) [Example H9A]
- pEC50: 7.66

SMILES: O=C(Nc1ncc(Cl)s1)C(Oc1ccc(F)cc1F)c1ccc(S(=O)(=O)C2CC2)cc1 (stereo not drawn) [Example A2, N-(5-Chlorothiazol-2-yl)-2-(4-cyclopropanesulfonylphenyl)-2-(2,4-difluorophenoxy)acetamide]
- pEC50: 6.89
- Emax: 95%

SMILES: NC(=O)c1cccc(Oc2cnc(NC(=O)C(Oc3ccc(F)cc3F)c3ccc(S(=O)(=O)C4CC4)cc3)s2)c1 (stereo not drawn) [Example G3, 3-{2-[2-(4-Cyclopropanesulfonyl-phenyl)-2-(2,4-difluoro-phenoxy)-acetylamino]-thiazol-5-yloxy}-benzamide]
- pEC50: 6.70
- Emax: 90%

SMILES: Cc1nc(NC(=O)C(Oc2ccc(F)cc2F)c2ccc(S(=O)(=O)C3CC3)cc2)sc1C(=O)O (stereo not drawn) [Example B12, 2-[2-(4-Cyclopropanesulfonylphenyl)-2-(2,4-difluorophenoxy)acetylamino]-4-methylthiazole-5-carboxylic acid]
- pEC50: < 5.00

SMILES: O=C(O)Cc1csc(NC(=O)C(Oc2ccc(F)cc2F)c2ccc(S(=O)(=O)C3CCCC3)cc2)n1 (stereo not drawn) [Example B14, {2-[2-(4-Cyclopentanesulfonylphenyl)-2-(2,4-difluorophenoxy)-acetylamino]-thiazol-4-yl}acetic acid]
- pEC50: 5.80
- Emax: 90%

SMILES: O=C(Nc1cnccn1)C(Oc1ccc(Cl)cc1F)c1ccc(S(=O)(=O)C2CC2)cc1 (stereo not drawn) [Example A47, 2-(4-Chloro-2-fluorophenoxy)-2-(4-cyclopropanesulfonylphenyl)-N-pyrazin-2-yl-acetamide]
- pEC50: 5.92
- Emax: 90%

SMILES: Cn1ccc(NC(=O)C(Oc2ccc(Cl)cc2F)c2ccc(S(=O)(=O)C3CC3)cc2)n1 (stereo not drawn) [Example A46, 2-(4-Chloro-2-fluorophenoxy)-2-(4-cyclopropanesulfonylphenyl)-N-(1-methyl-1H-pyrazol-3-yl)acetamide]
- pEC50: 5.86
- Emax: 90%

SMILES: O=C(Nc1ncc(F)s1)C(Oc1ccc(F)cc1F)c1ccc(S(=O)(=O)C2CCCC2)c(Cl)c1 (stereo not drawn) [Example A36, 2-(3-Chloro-4-cyclopentanesulfonylphenyl)-2-(2,4-difluorophenoxy)-N-(5-fluoro-thiazol-2-yl)acetamide]
- pEC50: 6.96
- Emax: 95%
